Experimental data published in ChEMBL document CHEMBL5665443, “Enzyme Inhibitor Single Concentration assay results for EUbOPEN Chemogenomics Library” (2024).

Key:
[1] = target: Methyl-CpG-binding domain protein 4 (Homo sapiens) (UniProt O95243); conditions: Hit No;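 further: MBD4 activity read as fluorescence at 594 nm from cleavage and release of a quenched duplex DNA oligonucleotide, with APE1 coupled to incise the strand and raise turnover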
Description: Inhibition of MBD4 by quantifying inhibition of MBD4-mediated cleavage and dissociation of quenched duplex DNA oligonucleotides, measured as fluorescence at 594 nm. To generate a functional strand incision and increase turn-over this assay is coupled to APE1.

[2] = target: Endonuclease 8-like 1 (Homo sapiens) (UniProt Q96FI4); conditions: Hit No;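 further: fluorescence at 594 nm from quenched duplex DNA oligonucleotides released by NEIL1 cleavage and strand separation, reported as reduction of this enzyme activity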
Description: Inhibition of NEIL1 by quantifying inhibition of NEIL1-mediated cleavage and dissociation of quenched duplex DNA oligonucleotides, measured as fluorescence at 594 nm.

[3] = target: T1, Endonuclease 8-like 2 (Homo sapiens) (UniProt Q969S2); conditions: Compound Concentration 10.0 uM, Hit No;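 further: fluorescence at 594 nm reports NEIL2 cutting and release of a quenched double-stranded DNA oligo substrate, reduced signal read as inhibition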
T1 sequence (whole entry): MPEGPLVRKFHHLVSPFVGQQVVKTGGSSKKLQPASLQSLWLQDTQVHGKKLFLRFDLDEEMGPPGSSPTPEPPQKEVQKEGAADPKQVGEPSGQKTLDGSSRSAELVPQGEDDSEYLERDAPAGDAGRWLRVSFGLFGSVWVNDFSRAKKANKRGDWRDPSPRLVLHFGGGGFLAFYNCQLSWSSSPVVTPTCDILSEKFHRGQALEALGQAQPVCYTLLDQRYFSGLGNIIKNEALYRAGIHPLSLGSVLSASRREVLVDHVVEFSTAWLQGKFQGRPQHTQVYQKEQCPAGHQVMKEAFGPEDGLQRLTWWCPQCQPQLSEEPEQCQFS
Description: Inhibition of NEIL2 by quantifying inhibition of NEIL2-mediated cleavage and dissociation of quenched duplex DNA oligonucleotides, measured as fluorescence at 594 nm.

[4] = target: T2, Endonuclease III-like protein 1 (Homo sapiens) (UniProt P78549); conditions: Hit No;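 further: enzyme assay tracking NTHL1 cutting and release of a quenched double-stranded DNA oligo substrate, read as fluorescence at 594 nm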
T2 sequence (whole entry): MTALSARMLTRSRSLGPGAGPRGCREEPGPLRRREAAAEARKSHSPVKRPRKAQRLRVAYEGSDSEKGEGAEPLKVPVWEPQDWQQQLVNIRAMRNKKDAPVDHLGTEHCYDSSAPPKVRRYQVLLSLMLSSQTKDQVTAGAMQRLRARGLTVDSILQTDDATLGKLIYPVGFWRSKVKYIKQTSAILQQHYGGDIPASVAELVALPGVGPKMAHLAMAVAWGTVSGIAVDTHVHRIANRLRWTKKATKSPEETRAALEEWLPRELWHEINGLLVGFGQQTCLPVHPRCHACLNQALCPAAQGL
Description: Inhibition of NTHL1 by quantifying inhibition of NTHL1-mediated cleavage and dissociation of quenched duplex DNA oligonucleotides, measured as fluorescence at 594 nm.

[5] = target: T3, Single-strand selective monofunctional uracil DNA glycosylase (Homo sapiens) (UniProt Q53HV7); conditions: Hit No;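 further: enzymatic SMUG1 assay coupled with APE1, reading fluorescence at 594 nm released when a quenched double-stranded DNA oligonucleotide substrate is cleaved and separated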
T3 sequence (whole entry): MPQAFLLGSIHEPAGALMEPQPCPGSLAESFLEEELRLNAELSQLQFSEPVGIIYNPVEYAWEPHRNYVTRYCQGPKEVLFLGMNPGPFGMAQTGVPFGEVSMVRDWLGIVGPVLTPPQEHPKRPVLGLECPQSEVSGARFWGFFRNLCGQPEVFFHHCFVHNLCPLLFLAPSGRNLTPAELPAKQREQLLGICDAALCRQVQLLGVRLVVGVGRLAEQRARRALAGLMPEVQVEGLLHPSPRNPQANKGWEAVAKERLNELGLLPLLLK
Description: Inhibition of SMUG1 by quantifying inhibition of SMUG1-mediated cleavage and dissociation of quenched duplex DNA oligonucleotides, measured as fluorescence at 594 nm. To generate a functional strand incision and increase turn-over this assay is coupled to APE1.

[6] = target: G/T mismatch-specific thymine DNA glycosylase (Homo sapiens) (UniProt Q13569); conditions: Hit No;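 further: human TDG cleavage of quenched duplex DNA oligonucleotides coupled to APE1, strand release read as fluorescence at 594 nm, inhibition of TDG activity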
Description: Inhibition of TDG by quantifying inhibition of TDG-mediated cleavage and dissociation of quenched duplex DNA oligonucleotides, measured as fluorescence at 594 nm. To generate a functional strand incision and increase turn-over this assay is coupled to APE1.

[7] = target: Uracil-DNA glycosylase (Homo sapiens) (UniProt P13051); conditions: Hit No;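 further: UNG excision on a quenched double-stranded DNA oligo probe, with APE1 added for strand incision and turnover, read as fluorescence at 594 nm as strands separate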
Description: Inhibition of UNG by quantifying inhibition of UNG-mediated cleavage and dissociation of quenched duplex DNA oligonucleotides, measured as fluorescence at 594 nm. To generate a functional strand incision and increase turn-over this assay is coupled to APE1.

[8] = target: N-glycosylase/DNA lyase (Homo sapiens) (UniProt O15527); conditions: Hit No;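 further: OGG1 cleavage of a quenched duplex DNA oligonucleotide, coupled to APE1 for strand incision, read as fluorescence at 594 nm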
N-glycosylase/DNA lyase (Homo sapiens), sequence (O15527 whole entry): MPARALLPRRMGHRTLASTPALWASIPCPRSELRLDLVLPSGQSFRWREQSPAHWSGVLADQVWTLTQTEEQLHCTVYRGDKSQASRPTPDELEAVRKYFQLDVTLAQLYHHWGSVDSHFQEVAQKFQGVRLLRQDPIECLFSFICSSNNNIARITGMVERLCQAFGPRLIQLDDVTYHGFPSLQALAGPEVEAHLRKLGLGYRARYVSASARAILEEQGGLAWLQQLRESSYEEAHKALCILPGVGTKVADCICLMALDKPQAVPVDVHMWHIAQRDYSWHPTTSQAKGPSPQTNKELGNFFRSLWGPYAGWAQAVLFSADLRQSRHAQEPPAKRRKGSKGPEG
Description: Inhibition of OGG1 by quantifying inhibition of OGG1-mediated cleavage and dissociation of quenched duplex DNA oligonucleotides, measured as fluorescence at 594 nm. To generate a functional strand incision and increase turn-over this assay is coupled to APE1.

Endonuclease 8-like 1 (Homo sapiens), sequence (Q96FI4 whole entry): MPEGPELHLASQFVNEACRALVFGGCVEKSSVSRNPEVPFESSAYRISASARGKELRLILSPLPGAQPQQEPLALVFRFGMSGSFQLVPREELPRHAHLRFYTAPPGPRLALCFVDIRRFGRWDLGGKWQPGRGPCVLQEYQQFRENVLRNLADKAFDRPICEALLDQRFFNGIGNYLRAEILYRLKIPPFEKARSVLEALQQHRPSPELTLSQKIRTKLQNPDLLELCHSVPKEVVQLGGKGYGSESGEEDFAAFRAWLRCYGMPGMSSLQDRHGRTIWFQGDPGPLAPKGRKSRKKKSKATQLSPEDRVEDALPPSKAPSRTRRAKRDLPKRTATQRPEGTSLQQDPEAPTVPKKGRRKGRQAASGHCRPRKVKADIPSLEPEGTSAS
G/T mismatch-specific thymine DNA glycosylase (Homo sapiens), sequence (Q13569 whole entry): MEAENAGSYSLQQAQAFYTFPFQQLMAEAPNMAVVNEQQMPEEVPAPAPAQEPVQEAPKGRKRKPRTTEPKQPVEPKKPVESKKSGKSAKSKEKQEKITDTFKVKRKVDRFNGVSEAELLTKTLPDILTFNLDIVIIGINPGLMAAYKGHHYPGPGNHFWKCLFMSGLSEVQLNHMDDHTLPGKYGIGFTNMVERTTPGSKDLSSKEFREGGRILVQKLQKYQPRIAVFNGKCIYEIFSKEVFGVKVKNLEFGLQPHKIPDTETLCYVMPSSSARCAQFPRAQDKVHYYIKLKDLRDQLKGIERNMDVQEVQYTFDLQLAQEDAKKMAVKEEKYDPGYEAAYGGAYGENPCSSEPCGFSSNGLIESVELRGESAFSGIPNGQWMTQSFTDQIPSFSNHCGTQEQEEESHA
Uracil-DNA glycosylase (Homo sapiens), sequence (P13051 whole entry): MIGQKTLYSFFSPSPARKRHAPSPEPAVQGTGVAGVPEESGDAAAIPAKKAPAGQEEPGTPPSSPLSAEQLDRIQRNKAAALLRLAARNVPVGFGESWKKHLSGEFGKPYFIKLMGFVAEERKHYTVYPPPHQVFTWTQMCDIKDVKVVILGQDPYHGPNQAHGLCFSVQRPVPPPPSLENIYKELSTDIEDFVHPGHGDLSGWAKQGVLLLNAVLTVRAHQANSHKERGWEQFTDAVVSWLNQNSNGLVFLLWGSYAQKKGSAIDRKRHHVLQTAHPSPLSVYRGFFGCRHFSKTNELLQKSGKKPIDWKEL
Methyl-CpG-binding domain protein 4 (Homo sapiens), sequence (O95243 whole entry, the tested form may be a part): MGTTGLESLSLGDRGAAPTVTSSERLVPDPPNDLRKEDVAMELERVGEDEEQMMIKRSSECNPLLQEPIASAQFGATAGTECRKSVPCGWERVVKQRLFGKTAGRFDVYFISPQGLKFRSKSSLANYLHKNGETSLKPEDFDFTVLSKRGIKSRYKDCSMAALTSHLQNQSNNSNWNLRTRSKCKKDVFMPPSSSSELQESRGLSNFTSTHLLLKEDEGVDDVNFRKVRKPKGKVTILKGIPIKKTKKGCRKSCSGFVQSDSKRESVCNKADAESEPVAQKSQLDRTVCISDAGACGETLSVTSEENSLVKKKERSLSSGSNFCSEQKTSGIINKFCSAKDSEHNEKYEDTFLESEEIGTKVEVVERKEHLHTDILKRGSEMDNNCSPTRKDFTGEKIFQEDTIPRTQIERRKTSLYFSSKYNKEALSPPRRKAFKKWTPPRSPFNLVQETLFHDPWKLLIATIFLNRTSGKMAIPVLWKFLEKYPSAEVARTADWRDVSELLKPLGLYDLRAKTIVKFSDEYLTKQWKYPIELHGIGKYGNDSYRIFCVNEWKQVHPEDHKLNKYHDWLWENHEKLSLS

SMILES	inhibition ([1]; Compound Concentration 10.0 uM) [%]	inhibition ([2]; Compound Concentration 10.0 uM) [%]	inhibition [3] [%]	inhibition ([4]; Compound Concentration 10.0 uM) [%]	inhibition ([5]; Compound Concentration 10.0 uM) [%]	inhibition ([6]; Compound Concentration 10.0 uM) [%]	inhibition ([7]; Compound Concentration 10.0 uM) [%]	inhibition ([8]; Compound Concentration 10.0 uM) [%]	inhibition ([1]; Compound Concentration 1.0 uM) [%]	inhibition ([2]; Compound Concentration 1.0 uM) [%]	inhibition ([4]; Compound Concentration 1.0 uM) [%]	inhibition ([8]; Compound Concentration 1.0 uM) [%]	inhibition ([5]; Compound Concentration 1.0 uM) [%]	inhibition ([6]; Compound Concentration 1.0 uM) [%]	inhibition ([7]; Compound Concentration 1.0 uM) [%]
CO[C@@H](C)c1c(Nc2ccc([C@@H](N(C)C(=O)C3CCS(=O)(=O)CC3)C(F)(F)F)cc2)cnc2cc(Cl)nn12	93.9	-6.35	0.0213	-9.83	13.4	42.7	0.795	–	–	–	–	–	–	–	–
CC(C)c1c(NC(=O)Nc2ccc(Cl)cc2)c(=O)n(-c2ccccc2)n1C	31.2	4.99	-6.97	12.9	-6.14	-4.69	–	-7	–	–	–	–	–	–	–
Cc1cnc(Nc2ccc(F)cc2Cl)nc1-c1c[nH]c(C(=O)N[C@H](CO)c2cccc(Cl)c2)c1	–	–	–	–	–	–	–	–	-4.19	-0.127	-6.19	-8.42	23.9	46.4	2.73
Cn1cc(-c2ccc3occ(-c4cccc(-c5ccncc5)c4)c3n2)cn1	-1.5	-1.18	-5.69	-8.98	13.1	42.6	-1.77	–	–	–	–	–	–	–	–
O=C(c1ccc(F)cc1)N1CC(COc2ccc(Br)cc2)(C(=O)O)C1	–	–	–	–	–	–	–	–	67.1	-7.26	0.685	-9.75	15.2	52.8	0.879
CCC1(C2=NCCN2)Cc2ccccc2O1 (stereo not drawn)	3.23	-9.99	-5.22	1.19	–	2.85	-0.713	-0.183	–	–	–	–	–	–	–
COc1ccc(CC[C@@H](OC(=O)[C@@H]2CCCCN2C(=O)[C@H](c2cc(OC)c(OC)c(OC)c2)C2CCCCC2)c2cccc(OCCN3CCOCC3)c2)cc1OC	43.3	–	–	-7.86	4.21	31.2	0.833	-4.59	–	–	–	–	–	–	–
CSc1cccnc1N1CCN(Cc2nc3ccccc3[nH]2)CC1	54.7	–	–	-5.89	6.69	19.8	0.535	6.57	–	–	–	–	–	–	–
COc1cccc(CNC(=O)c2nc3scc(CN(C)Cc4ccccc4)c3c(=O)[nH]2)c1	59.5	-6.05	–	-9.83	12.8	43.2	2.11	4.36	–	–	–	–	–	–	–
COc1c(OCCCN2CCOCC2)ccc2c1N=C(NC(=O)c1cnc(N)nc1)N1CCN=C21	–	–	–	–	–	–	–	–	-2.38	-8.98	4.97	5.38	20	26.4	-3.63
Cc1cc2c(-c3ccco3)cnc(N[C@@H]3CCN(C)C[C@H]3C(=O)NC3CCCCC3)c2[nH]c1=O	58.5	–	–	-9.18	–	33.3	-3.36	–	–	–	–	–	–	–	–
CC1=C(C(=O)Nc2cc3cn[nH]c3cc2F)C(c2ccc(C(F)(F)F)cc2)CC(=O)N1 (stereo not drawn)	18	4.1	3.2	-2.7	22.4	34.3	7.25	–	–	–	–	–	–	–	–
C[C@@H]1CN(c2nccc(Nc3ccc4c(c3)n(CCC(C)(C)O)c(=O)n4C)n2)C[C@H](C)C1(F)F	56.2	-3.77	-8.14	-0.63	7.55	98.6	5.07	–	–	–	–	–	–	–	–
CCOc1cc(N2CCC(O)CC2)ccc1Nc1ncc2c(n1)N(C1CCCC1)CCC(=O)N2C	-5.19	-5.28	–	-6.19	12.4	36.7	-0.0214	–	–	–	–	–	–	–	–
CCCCCCCCCCCCC/C=C/[C@@H](O)[C@@H](N)COP(=O)([O-])OCC[N+](C)(C)C	-8.69	–	-4.94	-8.51	-8.04	–	-1	5.72	–	–	–	–	–	–	–
